Source: article PMC3322975 (The Journal of Biological Chemistry, 2012)

Target: Kv7.2/7.3 M-channel (Homo sapiens, UniProt O43525+O43526)
Assay: single-channel recording, excised inside-out patch
Type: cell-based

Kv7.2/7.3 M-channel, sequence (O43526 whole entry): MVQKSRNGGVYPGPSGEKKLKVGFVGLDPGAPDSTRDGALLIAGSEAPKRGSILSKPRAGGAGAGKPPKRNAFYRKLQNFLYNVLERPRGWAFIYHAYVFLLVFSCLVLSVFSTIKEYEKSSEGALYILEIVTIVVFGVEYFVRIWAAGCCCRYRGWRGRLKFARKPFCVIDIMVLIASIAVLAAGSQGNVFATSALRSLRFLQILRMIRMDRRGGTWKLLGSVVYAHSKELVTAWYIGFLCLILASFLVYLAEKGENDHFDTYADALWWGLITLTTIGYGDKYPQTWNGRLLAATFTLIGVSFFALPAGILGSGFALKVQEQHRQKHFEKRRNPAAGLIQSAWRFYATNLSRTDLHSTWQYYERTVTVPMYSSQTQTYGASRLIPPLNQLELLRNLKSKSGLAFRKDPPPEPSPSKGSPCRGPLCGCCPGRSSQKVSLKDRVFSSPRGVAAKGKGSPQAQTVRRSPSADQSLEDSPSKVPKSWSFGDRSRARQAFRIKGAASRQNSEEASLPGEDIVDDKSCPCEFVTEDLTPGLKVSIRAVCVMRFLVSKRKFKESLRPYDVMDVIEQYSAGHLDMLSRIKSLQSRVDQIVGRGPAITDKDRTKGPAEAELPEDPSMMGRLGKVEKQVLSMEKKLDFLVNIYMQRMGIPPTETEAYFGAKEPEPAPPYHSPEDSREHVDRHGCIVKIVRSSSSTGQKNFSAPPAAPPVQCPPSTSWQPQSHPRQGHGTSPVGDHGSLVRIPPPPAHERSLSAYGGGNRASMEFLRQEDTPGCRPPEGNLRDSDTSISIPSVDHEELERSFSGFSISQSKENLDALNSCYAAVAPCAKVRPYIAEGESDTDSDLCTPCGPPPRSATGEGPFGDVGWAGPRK
Kv7.2/7.3 M-channel, sequence (O43525 whole entry): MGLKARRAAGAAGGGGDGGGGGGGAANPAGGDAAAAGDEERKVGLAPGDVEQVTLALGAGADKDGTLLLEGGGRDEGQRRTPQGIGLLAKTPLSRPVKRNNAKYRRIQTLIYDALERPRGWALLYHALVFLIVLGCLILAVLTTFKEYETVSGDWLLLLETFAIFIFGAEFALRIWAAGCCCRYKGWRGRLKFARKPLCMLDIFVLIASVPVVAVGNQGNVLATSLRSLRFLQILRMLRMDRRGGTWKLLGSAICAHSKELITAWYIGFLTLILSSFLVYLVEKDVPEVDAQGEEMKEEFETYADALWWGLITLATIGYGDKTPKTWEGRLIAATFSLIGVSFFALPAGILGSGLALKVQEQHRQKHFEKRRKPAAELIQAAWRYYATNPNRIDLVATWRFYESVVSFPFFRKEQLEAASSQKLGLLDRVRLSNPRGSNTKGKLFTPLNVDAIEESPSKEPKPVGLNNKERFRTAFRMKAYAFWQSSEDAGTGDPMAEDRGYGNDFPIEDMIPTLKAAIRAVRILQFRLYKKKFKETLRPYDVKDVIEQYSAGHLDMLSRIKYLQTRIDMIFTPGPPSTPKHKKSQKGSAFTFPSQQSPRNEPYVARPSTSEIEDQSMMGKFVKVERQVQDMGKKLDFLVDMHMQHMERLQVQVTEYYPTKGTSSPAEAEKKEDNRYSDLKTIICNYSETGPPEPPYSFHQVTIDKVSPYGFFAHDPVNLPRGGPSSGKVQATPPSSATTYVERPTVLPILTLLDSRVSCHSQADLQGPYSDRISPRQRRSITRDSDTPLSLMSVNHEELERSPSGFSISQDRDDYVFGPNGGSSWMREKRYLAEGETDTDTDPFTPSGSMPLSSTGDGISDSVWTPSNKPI

Structure (SMILES) | EC50 [nM]
CCCCCCCC/C=C\CCCCCCCC(=O)OC[C@@H](O)COP(=O)(O)O [LPA] | 1500 ± 400
CCCCCCCCc1ccc(CCC(N)(CO)COP(=O)(O)O)cc1 (stereo not drawn) [FTY720-P] | 500 ± 1
CCCCCCCCCCCCC/C=C/[C@@H](O)[C@@H](N)COP(=O)(O)O [S-1-P] | 3200 ± 600
CCCCCCCC(=O)OC[C@H](COP(=O)(O)O[C@H]1[C@H](O)[C@@H](OP(=O)(O)O)[C@H](OP(=O)(O)O)[C@@H](OP(=O)(O)O)[C@H]1O)OC(=O)CCCCCCC [diC8PI(3,4,5)P3] | 1100 ± 200

Further lines, results first:

EC50 [nM] | Structure (SMILES)
1700 ± 300 | CCCCCCCC(=O)OC[C@H](COP(=O)(O)O[C@H]1[C@H](O)[C@@H](O)[C@H](OP(=O)(O)O)[C@@H](O)[C@H]1O)OC(=O)CCCCCCC [diC8PI(4)P]
1100 ± 100 | CCCCCCCC(=O)OC[C@H](COP(=O)(O)O[C@@H]1[C@H](O)[C@H](O)[C@@H](OP(=O)(O)O)[C@H](OP(=O)(O)O)[C@H]1O)OC(=O)CCCCCCC [diC8PI(4,5)P2]
